Measured values reported in patent publication US9314509B2, “Pharmaceutical compositions of melanocortin receptor ligands” (Ipsen Pharma S.A.S., priority 2009, dated 2016).
Counter-ions that a name gives are not always drawn. Like-named read-outs stand apart in the source and are kept apart here.

Assay: Solubility of pamoate salt, HPLC determination of concentration in supernatant
Format: physicochemical
Experimental: The solubility of pamoate salt of Example 1 was determined by mixing the peptide in water or PBS, followed by HPLC determination of the concentration in the supernatant, and the results are shown in Table 4B.

CC(=O)N[C@@H](CCCNC(=N)N)C(=O)N[C@H]1CSSC[C@@H](C(N)=O)NC(=O)[C@H](Cc2c[nH]c3ccccc23)NC(=O)[C@H](CCCNC(=N)N)NC(=O)[C@@H](Cc2ccccc2)NC(=O)[C@H](Cc2c[nH]cn2)NC(=O)[C@@H](C)NC1=O [Pamoate salt of Example 1 with Zn]
solubility (PBS, pH 7.4, read-out: Solubility in PBS, pH 7.4): 120 µg/mL | solubility (Water, pH 7.0, read-out: Solubility in Water, pH 7.0): 50 µg/mL
